Entries after “also recorded” stand apart in the source; their conditions may differ. Where two headings read alike, the source gives them in different places.
How the values were obtained:
plasma proline [1] = conditions: previously reported (Jacquet et al., 2005); cited from earlier work
PRODH expression [2] = conditions: bronchial smooth muscle cells, treated (n=3) vs untreated (n=3), p=0.01; cited from earlier work
PRODH expression [3] = test: Peripheral PRODH expression in first-episode never-medicated SZ patients pre and post treatment (Affymetrix U133v2.0 arrays); assay type: in vivo, human
From the text: Change in log PRODH were plotted for each subject prior to-(100%), and post-treatment onset. All of the subjects received risperidone. The mean time between blood draws was 8.3 days. […] There were no significant differences in time between blood draws for those with increased PRODH (n=3), versus those with no increase (n=3, p=0.2). […] In a linear regression model, PRODH percent change was a significant predictor of total Brief Psychiatric Rating Scale (BPRS) score approximately 8 days following treatment initiation (p=0.047), after adjusting for baseline total BPRS score. Furthermore, the linear relationship between PRODH change and adjusted BPRS score was highly significant (r=−0.92, p=0.025).
Exploratory analysis of PRODH expression levels were also performed in first-episode, never-medicated SZ patients (n=6). Male, first-episode, never-medicated SZ patients were recruited at the Bellevue Hospital CPEP. A 15 ml blood sample was collected at admission to the CPEP, and peripheral PRODH expression was measured using Affymetrix U133v2.0 arrays (PRODH is one of the 54,000 transcripts). A post-treatment measurement of PRODH expression was also obtained (mean time between blood draws=8.3 days).

plasma proline [4] = test: Fasting plasma proline before and after oral Vitamin D supplementation; assay type: in vivo; conditions: oral 2000 IU daily, five fasting measurements before and five over subsequent five days, p=0.059
From the text: Affymetrix microarray data was accessed via the NCBI GEO database, accession numbers GDS1847 (FIG. 4A) and GDS2628 (FIG. 4B). […] Five fasting plasma proline measurements were obtained prior to the initiation of Vitamin D supplementation (2000 IU daily), after which an additional five fasting plasma measurements were obtained over the subsequent five days.
As illustrated by FIG. 4, the biologically active form of vitamin D (1α,25-dihydroxyvitamin D3 [1α,25(OH)2D3]) is also a potent regulator of PRODH expression. […] Moreover, in vivo (FIG. 4C), proline levels are decreased by treatment with oral vitamin D.

PRODH expression [5] = conditions: intestinal epithelial cells, treated (n=5) vs untreated control cells (n=5), p=0.044 one-tailed, cited from earlier work
[6] = male infants receiving supplements (≦2000 IU/day) during first year of life; cited from earlier work
[7] = women with high vs low dietary consumption; cited from earlier work

## CCCC(CCC)C(=O)O [valproic acid]
Plasma proline [1]
  effect on plasma proline level: significant effect

## C=C1/C(=C\C=C2/CCC[C@]3(C)[C@@H]([C@H](C)CCCC(C)(C)O)CC[C@@H]23)C[C@@H](O)C[C@@H]1O [1alpha,25-dihydroxy-vitamin-D3]
PRODH expression [2]
  PRODH expression (probeset 214203_s_at): upregulation

## Cc1nc2n(c(=O)c1CCN1CCC(c3noc4cc(F)ccc34)CC1)CCCC2 [risperidone]
PRODH expression [3]; all subjects n=6, mean 8.3 days between blood draws, pre level 6.10±0.41, p=0.3
  PRODH expression post-treatment level (mean): 6.24±0.35 expression units
PRODH expression [3]; no-change group, n=3, non-significant, p=0.15
  decrease of PRODH expression after onset of treatment: 2.3%
PRODH expression [3]; subset of patients (n=3), p=0.034
  change in PRODH expression between pre and post assay: significantly upregulated
PRODH expression [3]; subset of subjects with increase, n=3, p=0.04
  mean percent change (increase) of PRODH expression after onset of treatment: 7.3%

## vitamin D
Plasma proline [4]
  plasma proline following Vitamin D treatment: trend for plasma proline to decrease
Plasma proline [4]; listed as vitamin D
  plasma proline following Vitamin D treatment: decreased
PRODH expression [5]
  PRODH expression (probeset 40042_r_at): upregulated
PRODH expression [5]; listed as vitamin D
  PRODH expression (probeset 40042_r_at): significantly upregulates
PRODH expression [2]
  PRODH expression (probeset 214203_s_at): significantly upregulates; also recorded: upregulation
[6]
  risk of schizophrenia: significantly reduced risk
[7]
  lower risk of psychosis-like symptoms: 37%

— US20150224120A1, “COMPOSITIONS AND METHODS FOR TREATING HYPERPROLINEMIA-ASSOCIATED MENTAL DISORDERS” (priority 2011, published 2015)
